The values that follow come from patent US6869957B1, “Non-peptide tachykinin receptor antagonists” (Eli Lilly and Company, priority 1993, dated 2005).

One test concerns the target T1, human NK-2 receptor (Homo sapiens, UniProt P21452).
T1 construct: expressed in transfected cells; host or cells: CHO-hNK-2R cells (CHO-derived), membrane preparation
T1 sequence (P21452 1-398): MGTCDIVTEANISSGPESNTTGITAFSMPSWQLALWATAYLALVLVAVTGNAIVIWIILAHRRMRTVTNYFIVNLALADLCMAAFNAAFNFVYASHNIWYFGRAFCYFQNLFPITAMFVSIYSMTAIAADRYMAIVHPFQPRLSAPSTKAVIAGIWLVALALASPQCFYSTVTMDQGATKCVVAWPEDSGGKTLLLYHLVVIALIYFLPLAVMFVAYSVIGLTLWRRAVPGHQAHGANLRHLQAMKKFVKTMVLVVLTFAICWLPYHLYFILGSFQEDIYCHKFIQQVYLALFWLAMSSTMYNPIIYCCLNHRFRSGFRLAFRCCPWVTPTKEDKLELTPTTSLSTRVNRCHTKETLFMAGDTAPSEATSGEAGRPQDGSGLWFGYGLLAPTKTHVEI
The experiment in a line: NK-2 Receptor Binding Assay ([125I]iodohistidyl-neurokinin A, CHO-hNK-2R membranes). Conditions: for IC50: inhibits fifty percent of binding of [125I]iodohistidyl-neurokinin A to CHO-hNK-2R membranes; for NK-2 percent inhibition of binding: @ 10 μM. A digest of the protocol: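 Membranes from CHO cells stably expressing human NK-2 receptor (~400,000/cell), 40 μg protein per sample, in 50 mM Tris pH 7.4 with 3 mM MnCl2, 0.02% BSA, 4 μg/ml chymostatin. Displacement of 20 pM [125I]iodohistidyl-neurokinin A, 1 hr at room temperature; GF/B filtration, gamma counting. Non-specific binding defined with 1 μM eledoisin.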

The next test addresses T2, NK-1 receptor (Homo sapiens, UniProt P25103).
T2 construct: endogenous in cells; host or cells: IM9 cells (human cell line), whole cells
The experiment in a line: NK-1 Receptor Binding Assay (125I-labeled substance P, IM9 cells). As to conditions: for IC50: inhibits fifty percent of binding of 125I-substance P to IM9 cells. A digest of the protocol:
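Radioligand binding on human IM9 cells, ended by filtration over glass fiber filters presoaked in 0.1% polyethylenimine. Specific binding of labeled substance P defined with 20 nM unlabeled ligand.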

T2 sequence (P25103 whole entry): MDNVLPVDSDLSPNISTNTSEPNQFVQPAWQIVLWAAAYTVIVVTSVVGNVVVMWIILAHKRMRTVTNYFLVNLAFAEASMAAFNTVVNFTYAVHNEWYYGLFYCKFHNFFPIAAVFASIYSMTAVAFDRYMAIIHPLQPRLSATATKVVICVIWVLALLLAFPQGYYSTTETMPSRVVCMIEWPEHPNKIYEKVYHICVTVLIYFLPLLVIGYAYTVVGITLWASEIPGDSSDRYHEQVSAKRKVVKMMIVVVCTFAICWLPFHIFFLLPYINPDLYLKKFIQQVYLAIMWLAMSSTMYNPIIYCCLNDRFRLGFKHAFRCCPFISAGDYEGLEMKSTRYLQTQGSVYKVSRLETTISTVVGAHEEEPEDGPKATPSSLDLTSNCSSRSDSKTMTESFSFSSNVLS

With `COc1ccccc1CN(CC(NC(=O)CN1CCC(N2CCCCC2)CC1)c1ccc(Cl)c(Cl)c1)C(C)=O` (centres unmarked) [Example 147], the IC50 – broadly, the concentration at which inhibition is half-maximal – is 430 nM at human NK-2 receptor and 196 nM on NK-1 receptor.
The matching figures for `COc1ccccc1CN(CC(Cc1ccccc1)NC(=O)CN1CCC(N2CCCCC2)CC1)C(C)=O` (centres unmarked) [Example 148]: 8500 nM and 24 nM.
The matching figures for `CC(C)(C)OC(=O)NCC(Cc1c[nH]c2ccccc12)NC(=O)CN1CCN(c2ccccc2)CC1` (centres unmarked) [Example 151, 1-t-butoxycarbonylamino-3-(1H-indol-3-yl)-2-[N-(2-((4-phenyl)piperazin-1-yl)acetyl)amino]propane]: 1700 nM and 1400 nM.
In the same order, the values of `O=C(CN1CCN(c2ccccc2)CC1)NC(CNC(=O)c1ccccc1)Cc1c[nH]c2ccccc12` (centres unmarked) [Example 152] are 2000 nM and 1200 nM.
As for `O=C(CN1CCN(c2ccccc2)CC1)NC(CNCC1CCCCC1)Cc1c[nH]c2ccccc12` (centres unmarked) [Example 153], the IC50 on human NK-2 receptor amounted to 540 nM; on NK-1 receptor, 650 nM.
For the molecule `CC(C)(C)OC(=O)NCC(=O)N(CC1CCCCC1)CC(Cc1c[nH]c2ccccc12)NC(=O)CN1CCN(c2ccccc2)CC1` (centres unmarked) [Example 154], the IC50 on human NK-2 receptor came to 210 nM. In addition, at NK-1 receptor (@ 1 μM), the “NK-1 percent inhibition of binding” value is recorded as 76% @.
For `CN(CC(Cc1c[nH]c2ccccc12)NC(=O)CN1CCC(N2CCCCC2)CC1)C(=O)c1ccccc1` (centres unmarked) [Example 155], at human NK-2 receptor, the IC50 was 12200 nM. Further, the “NK-1 percent inhibition of binding” value on NK-1 receptor (@ 5 μM) turned out to be 63% @.
In the same order, the values of `CC(=O)NC1(c2ccccc2)CCN(CC(=O)NC(Cc2c[nH]c3ccccc23)CN(C)C(=O)c2ccccc2)CC1` (centres unmarked) [Example 156] are 9500 nM and 78% @.
On to `CN(CC(Cc1c[nH]c2ccccc12)NC(=O)CN1CCN(c2ccccc2)CC1)C(=O)c1ccccc1` (centres unmarked) [Example 157], for which the IC50 on human NK-2 receptor is 2900 nM. For the same molecule, on NK-1 receptor (@ 5 μM), the “NK-1 percent inhibition of binding” value is 88% @.
Consider `CN(CC(Cc1c[nH]c2ccccc12)NC(=O)CN1CCN(C2CCCCC2)CC1)C(=O)c1ccccc1` (centres unmarked) [Example 158], for which the IC50 came out at 3800 nM at human NK-2 receptor and 450 nM on NK-1 receptor.
For `COc1ccccc1CN(CC(N)Cc1ccccc1)C(C)=O` (centres unmarked) [Example 159], the “NK-2 percent inhibition of binding” value on human NK-2 receptor is reported as 11 @ %. The “NK-1 percent inhibition of binding” value at NK-1 receptor (@ 5 μM) is on record as 54% @.
On human NK-2 receptor, `COc1ccccc1CN(CC(N)Cc1cn(C)c2ccccc12)C(C)=O` (centres unmarked) [Example 160] gave an IC50 of 19000 nM. Besides, on NK-1 receptor (@ 5 μM), the “NK-1 percent inhibition of binding” value is given as 0% @.
With `COc1ccccc1CN(CC(NC(=O)CBr)c1ccccc1)C(C)=O` (centres unmarked) [Example 161], on human NK-2 receptor, the “NK-2 percent inhibition of binding” value was determined as 0% @. In addition, on NK-1 receptor (@ 5 μM), the “NK-1 percent inhibition of binding” value turned out to be 24% @.
Consider `COc1ccccc1CN(CC(Cc1ccccc1)NC(=O)CBr)C(C)=O` (centres unmarked) [Example 161a], for which, at human NK-2 receptor, the IC50 is 17600 nM. Moreover, the “NK-1 percent inhibition of binding” value at NK-1 receptor (@ 5 μM) was found to be 77% @.
Consider `COc1ccccc1CN(CC(Cc1cn(C)c2ccccc12)NC(=O)CBr)C(C)=O` (centres unmarked) [Example 162], for which, on human NK-2 receptor, the “NK-2 percent inhibition of binding” value turned out to be 0% @. The IC50 at NK-1 receptor was determined as 375 nM.
As for `CC(=O)N(C)CC(Cc1c[nH]c2ccccc12)NC(c1ccccc1)(c1ccccc1)c1ccccc1` (centres unmarked) [Example 164], the IC50 on human NK-2 receptor came to 6200 nM. Moreover, the “NK-1 percent inhibition of binding” value on NK-1 receptor (@ 5 μM) is 0% @ 5 μM.
The matching figures for `CCCCN(CC(Cc1c[nH]c2ccccc12)NC(c1ccccc1)(c1ccccc1)c1ccccc1)C(C)=O` (centres unmarked) [Example 165]: 10400 nM and 3% @ 5 μM.
In the same order, the values of `CCCCCCN(CC(Cc1c[nH]c2ccccc12)NC(c1ccccc1)(c1ccccc1)c1ccccc1)C(C)=O` (centres unmarked) [Example 166] are 10000 nM and 0% @ 5 μM.
The matching figures for `CC(=O)N(CC(Cc1c[nH]c2ccccc12)NC(c1ccccc1)(c1ccccc1)c1ccccc1)c1ccccc1` (centres unmarked) [Example 167]: 21000 nM and 0% @ 5 μM.
`CC(=O)N(CCc1ccccc1)CC(Cc1c[nH]c2ccccc12)NC(c1ccccc1)(c1ccccc1)c1ccccc1` (centres unmarked) [Example 168]: on human NK-2 receptor, the IC50 was over 100000 nM. In addition, the “NK-1 percent inhibition of binding” value at NK-1 receptor (@ 5 μM) is given as 13% @.
In the same order, the values of `COc1ccccc1CNCC(Cc1c[nH]c2cc(C)ccc12)NC(c1ccccc1)(c1ccccc1)c1ccccc1` (centres unmarked) [Example 169] are 13900 nM and 8% @ 5 μM.
`CC(=O)N(Cc1ccccc1Cl)CC(Cc1c[nH]c2ccccc12)NC(c1ccccc1)(c1ccccc1)c1ccccc1` (centres unmarked) [Example 170]: the “NK-2 percent inhibition of binding” value on human NK-2 receptor came to 2% @. Further, at NK-1 receptor, the IC50 is 67 nM.
As to `COc1ccccc1CN(CC(Cc1c[nH]c2cc(C)ccc12)NC(c1ccccc1)(c1ccccc1)c1ccccc1)C(C)=O` (centres unmarked) [Example 171], the “NK-2 percent inhibition of binding” value on human NK-2 receptor is listed as 6% @. For the same molecule, at NK-1 receptor (@ 5 μM), the “NK-1 percent inhibition of binding” value is reported as 0% @ 5 μM.
Consider `COc1ccccc1CNCC(NC(c1ccccc1)(c1ccccc1)c1ccccc1)c1ccccc1` (centres unmarked) [Example 173], for which the IC50 on human NK-2 receptor came out at 2000 nM; on NK-1 receptor, 74 nM.
In turn, `COc1ccccc1CNCC(Cc1ccccc1)NC(c1ccccc1)(c1ccccc1)c1ccccc1` (centres unmarked) [Example 174] gave an IC50 at human NK-2 receptor of 6400 nM. For the same molecule, the “NK-1 percent inhibition of binding” value at NK-1 receptor (@ 5 μM) came out at 0% @ 5 μM.
Take `COc1ccccc1CN(CC(NC(c1ccccc1)(c1ccccc1)c1ccccc1)c1ccccc1)C(C)=O` (centres unmarked) [Example 175]: the “NK-2 percent inhibition of binding” value on human NK-2 receptor was 9% @. The “NK-1 percent inhibition of binding” value at NK-1 receptor (@ 5 μM) is listed as 28% @.
The matching figures for `COc1ccccc1CN(CC(NC(c1ccccc1)(c1ccccc1)c1ccccc1)c1ccc(Cl)c(Cl)c1)C(C)=O` (centres unmarked) [Example 176]: 0% @ and 9% @ 5 μM.
For the molecule `COc1ccccc1CN(CC(Cc1ccccc1)NC(c1ccccc1)(c1ccccc1)c1ccccc1)C(C)=O` (centres unmarked) [Example 177], on human NK-2 receptor, the “NK-2 percent inhibition of binding” value came to 12% @. At NK-1 receptor (@ 10 μM), the “NK-1 percent inhibition of binding” value was 0% @.
